Consider three molecules from US20240301472A1, “NUCLEIC ACID DETECTION METHOD, COMPOUND AND FLUORESCENT PROBE” (WAKAYAMA UNIVERSITY, priority 2020, published 2024).

One assay addresses ds(AAATTT) being a dsDNA. The settings on record: conventional fluorescent ds probe, comparison value, read-out: dissociation constant; cited from earlier work.
Assay [1] has as its system viable cells (HeLA, A549, HEK293, MRC-5). Briefly: Tracking of quadruplex nucleic acid formation in viable cells stained by compound 10 (response to PDS). The format is cell-based. The conditions noted are these: PDS 20 μM added to viable cells stained by compound 10 (1 μM). The protocol: In the seventh experiment, pyridostatin (PDS: 20 μM) was added to viable cells stained by the same method as that in the sixth experiment and temporal change of a fluorescence image thereafter was observed. Pyridostatin (PDS) is a reagent for stabilizing quadruplex nucleic acids. FIG. 24 and FIG. 25 show the result of the seventh experiment.
In FIG. 25 as well, a case where PDS was added to the viable cells stained by the compound 10 was indicated with PDS (+), and a case where PDS was not added was indicated with PDS (−). In FIG. 25, the vertical axis represents intensity ratio between 600 nm fluorescence and 700 nm fluorescence, and the horizontal axis represents time after addition of PDS.

A further assay relates to living HeLa cells. Briefly: Competition experiment with Hoechist 33258 using living HeLa cells. The class given is cell-based. The conditions noted are these: Hoechist 33258 0-20 μM with compound 10 (1 μM) in 5% glucose. On the procedure:
In a tenth experiment, a competition experiment with Hoechist 33258 was performed using living HeLa cells. As the staining liquid, one obtained by causing Hoechist 33258 at an arbitrary concentration (0 μM, 5.0 μM, 10 μM, 20 μM) to coexist in a 5% glucose solution of the compound 10 (1 μM) was used, and the experiment was performed according to an operation similar to that in the sixth experiment. […] In FIG. 28, “600 nm” is a 600 nm fluorescence image. “700 nm” is a 700 nm fluorescence image. “Hoe” is a 460 nm fluorescence image at each concentration of Hoechist 33258. “Merged” is a synthesized image of “600 nm”, “700 nm”, and “Hoe”.

The next assay deals with fixed HeLa cells. As to the kind of experiment: Competition experiment with Hoechist 33258 using fixed HeLa cells. The class given is cell-based. The settings on record: Hoechist 33258 0-6.0 μM with compound 10 (6 μM) in PBS. The protocol:
In a ninth experiment, a competition experiment with Hoechist 33258 was performed using fixed HeLa cells. As the staining liquid, one obtained by causing Hoechist 33258 at an arbitrary concentration (0 μM, 1.5 μM, 3.0 μM, 6.0 μM) to coexist in a PBS solution of the compound 10 (6 μM) was used, and the experiment was performed according to an operation similar to that in the fourth experiment. […] In FIG. 27, “Ph” is a phase contrast observation image of cells at each concentration of Hoechist 33258. “Hoe” is a 460 nm fluorescence image at each concentration of Hoechist 33258. The fluorescence wavelength of Hoechist 33258 is 460 nm. “600 nm” is a 600 nm fluorescence image. “700 nm” is a 700 nm fluorescence image. “600 nm/700 nm” is a synthesized image of “600 nm” and “700 nm”. “Magnified 600 nm/700 nm” is a magnified image of “600 nm/700 nm”.

Structures are written as SMILES.

In the case of `C[n+]1c(/C=C/c2ccc(O)c(/C=C/c3sc4ccccc4[n+]3C)c2)sc2ccccc21` [QCy-DT, quinone cyanine-dithiazole], the Kd at ds(AAATTT) being a dsDNA was ~0.67 µM.

On to `NCCOc1cc(C(=O)Nc2cc(OCCN)c3ccccc3n2)nc(C(=O)Nc2cc(OCCN)c3ccccc3n2)c1` [PDS, Pyridostatin], for which the “intensity ratio of 700 nm fluorescence to 600 nm fluorescence” value in assay [1] was “increased”.

With `CN1CCN(c2ccc3[nH]c(-c4ccc5[nH]c(-c6ccc(O)cc6)nc5c4)nc3c2)CC1` [Hoechist 33258], the “600 nm fluorescence intensity of compound 10 with increasing Hoechist 33258 concentration” value in the assay with living HeLa cells and in the assay on fixed HeLa cells was “significantly decreased” in each case.
